Laboratory results reported in ChEMBL document CHEMBL1201862, “PubChem BioAssay data set” (2004).
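Assay format: 96-well plates, 48-hour exposure. GI50 marks 50% less growth.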 Active and inactive are the calls of the source. No stated cut-off is given here; in the data, active = GI50 up to about 1.1 µM and inactive = higher.

What was measured:
Test in all cases: NCI-60 cell line screen, 48 h
A498 = test system: A498
CAKI-1 = test system: CAKI-1
DU-145 = test system: DU-145
HT-29 = test system: HT-29
IGROV-1 = test system: IGROV-1
MCF7 = test system: MCF7
MOLT-4 = test system: MOLT-4
OVCAR-4 = test system: OVCAR-4
OVCAR-5 = test system: OVCAR-5
RPMI-8226 = test system: RPMI-8226
SK-MEL-5 = test system: SK-MEL-5
SK-OV-3 = test system: SK-OV-3
SN12C = test system: SN12C
SR = test system: SR
SW-620 = test system: SW-620
TK-10 = test system: TK-10
UACC-257 = test system: UACC-257
UACC-62 = test system: UACC-62
UO-31 = test system: UO-31

Row | SMILES | GI50 (A498) | GI50 (CAKI-1) | GI50 (DU-145) | GI50 (HT-29) | GI50 (IGROV-1) | GI50 (MCF7) | GI50 (MOLT-4) | GI50 (OVCAR-4) | GI50 (OVCAR-5) | GI50 (RPMI-8226) | GI50 (SK-MEL-5) | GI50 (SK-OV-3) | GI50 (SN12C) | GI50 (SR) | GI50 (SW-620) | GI50 (TK-10) | GI50 (UACC-257) | GI50 (UACC-62) | GI50 (UO-31)
1 | Cc1ccc(-c2nc(-c3nccc4ccccc34)oc2-c2ccccc2)cc1 | 30.5 µM (inactive) | 43.3 µM (inactive) | 63.2 µM (inactive) | 5.64 µM (inactive) | > 100 µM (inactive) | 27.9 µM (inactive) | 25.2 µM (inactive) | > 100 µM (inactive) | > 100 µM (inactive) | 38.4 µM (inactive) | 28.1 µM (inactive) | 68.9 µM (inactive) | 24.8 µM (inactive) | 25.8 µM (inactive) | 88.3 µM (inactive) | 66.8 µM (inactive) | 85.3 µM (inactive) | 46.6 µM (inactive) | 95.9 µM (inactive)
2 | C=CCN1C(=O)/C(=C/c2ccccc2)N=C1SC/C=C/C | 43.7 µM (inactive) | > 100 µM (inactive) | 57.5 µM (inactive) |  | > 100 µM (inactive) | 33.1 µM (inactive) |  | 31.2 µM (inactive) |  | 15.7 µM (inactive) | 18.4 µM (inactive) | > 100 µM (inactive) | 40.2 µM (inactive) | 6.67 µM (inactive) | 46.1 µM (inactive) | 79.1 µM (inactive) | 28.3 µM (inactive) | 51.5 µM (inactive) | 39.9 µM (inactive)
3 | Cc1ccc([N+](=O)[O-])cc1S(=O)(=O)Nc1ccc(C2=NNC(c3cccs3)C2)cc1 (centres undefined) | 20.4 µM (inactive) | 30.5 µM (inactive) | 30.3 µM (inactive) | 29.9 µM (inactive) | 58.9 µM (inactive) | 13.7 µM (inactive) | 13.7 µM (inactive) | 22 µM (inactive) | 58.9 µM (inactive) | 16.6 µM (inactive) | 17.4 µM (inactive) | 20.7 µM (inactive) | 29.2 µM (inactive) | 20 µM (inactive) | 34.1 µM (inactive) |  | 26.9 µM (inactive) | 14.5 µM (inactive) | 5.32 µM (inactive)
4 | NS(=O)(=O)c1ccc(NC(=S)NC=C2C(=O)c3ccccc3C2=O)cc1 | 71.9 µM (inactive) | 86.5 µM (inactive) | 94 µM (inactive) |  | 23.3 µM (inactive) | 17.9 µM (inactive) | 61.9 µM (inactive) | 49 µM (inactive) | > 100 µM (inactive) | 36.4 µM (inactive) | 47 µM (inactive) | > 100 µM (inactive) | > 100 µM (inactive) | 42 µM (inactive) | > 100 µM (inactive) | 46.6 µM (inactive) | > 100 µM (inactive) | 56.2 µM (inactive) | 22.6 µM (inactive)
5 | NC(CCC(=O)c1ccccn1)C(=O)O (centres undefined) | > 100 µM (inactive) | > 100 µM (inactive) | > 100 µM (inactive) | > 100 µM (inactive) | > 100 µM (inactive) | > 100 µM (inactive) | > 100 µM (inactive) | > 100 µM (inactive) | > 100 µM (inactive) | > 100 µM (inactive) | > 100 µM (inactive) | > 100 µM (inactive) | > 100 µM (inactive) | > 100 µM (inactive) | > 100 µM (inactive) | > 100 µM (inactive) | > 100 µM (inactive) | > 100 µM (inactive) | > 100 µM (inactive)
6 | N#CC(C#N)=CNC(N)=S | > 100 µM (inactive) | > 100 µM (inactive) | > 100 µM (inactive) | > 100 µM (inactive) | > 100 µM (inactive) | > 100 µM (inactive) | > 100 µM (inactive) | > 100 µM (inactive) | > 100 µM (inactive) | > 100 µM (inactive) | > 100 µM (inactive) | > 100 µM (inactive) | > 100 µM (inactive) | > 100 µM (inactive) | > 100 µM (inactive) |  | > 100 µM (inactive) | > 100 µM (inactive) | 
7 | Cc1ccc(/N=N/C(=N/NC(=O)c2ccccc2)c2ccc(N(CCC#N)CCC#N)cc2C)cc1 | 19.8 µM (inactive) | > 100 µM (inactive) | 43.2 µM (inactive) | 19 µM (inactive) | 29.3 µM (inactive) | 21.3 µM (inactive) | 61.1 µM (inactive) | 99.8 µM (inactive) | > 100 µM (inactive) | > 100 µM (inactive) | 13.4 µM (inactive) | 60.3 µM (inactive) | 40.8 µM (inactive) | 5.79 µM (inactive) |  | > 100 µM (inactive) | 55 µM (inactive) | 31 µM (inactive) | > 100 µM (inactive)
8 | CCOC(=O)c1c(N2CCOCC2)[nH]c(=O)c(C(c2ccco2)c2c(O)c(C(=O)OCC)c(N3CCOCC3)[nH]c2=O)c1O | > 100 µM (inactive) | > 100 µM (inactive) | > 100 µM (inactive) | > 100 µM (inactive) |  | > 100 µM (inactive) | > 100 µM (inactive) | > 100 µM (inactive) | > 100 µM (inactive) | > 100 µM (inactive) | > 100 µM (inactive) | > 100 µM (inactive) | > 100 µM (inactive) | > 100 µM (inactive) | > 100 µM (inactive) | > 100 µM (inactive) | > 100 µM (inactive) | > 100 µM (inactive) | > 100 µM (inactive)
9 | Cc1c(Cl)cccc1NC(=O)/C=C/c1ccccc1 | > 100 µM (inactive) | 16.3 µM (inactive) | > 100 µM (inactive) | > 100 µM (inactive) | > 100 µM (inactive) | > 100 µM (inactive) | > 100 µM (inactive) | > 100 µM (inactive) | > 100 µM (inactive) | 97.9 µM (inactive) | > 100 µM (inactive) | > 100 µM (inactive) | > 100 µM (inactive) | 50.7 µM (inactive) | > 100 µM (inactive) | > 100 µM (inactive) | > 100 µM (inactive) | > 100 µM (inactive) | 
10 | CO[C@@H]1O[C@H](C(=O)c2ccccc2)[C@H]2OC(C)(C)O[C@@H]12 | > 100 µM (inactive) | > 100 µM (inactive) | 54.5 µM (inactive) |  | > 100 µM (inactive) | > 100 µM (inactive) | > 100 µM (inactive) | > 100 µM (inactive) | > 100 µM (inactive) | > 100 µM (inactive) | > 100 µM (inactive) | > 100 µM (inactive) | 89.7 µM (inactive) | 57.8 µM (inactive) | 56.8 µM (inactive) | > 100 µM (inactive) | > 100 µM (inactive) | > 100 µM (inactive) | > 100 µM (inactive)
11 | Cc1cc(C)n(-c2nc3ccccc3c(=O)[nH]2)n1 | 23.2 µM (inactive) | 3.02 µM (inactive) | 5.89 µM (inactive) | 2.74 µM (inactive) | 1.5 µM (inactive) | 3.78 µM (inactive) | 1.6 µM (inactive) | 56.6 µM (inactive) | > 77.3 µM (inactive) | 3.92 µM (inactive) | 2.64 µM (inactive) | 8.65 µM (inactive) | 4.34 µM (inactive) | 0.906 µM (active) | 3.28 µM (inactive) | > 50.8 µM (inactive) | 33.6 µM (inactive) | 2.78 µM (inactive) | 3.77 µM (inactive)
12 | CC(C)C1CC(CO)(CNc2nc(N)nc(Cl)c2/C=N\O)C1 (centres undefined) | 12.3 µM (inactive) | 11.9 µM (inactive) | 15.6 µM (inactive) | 4.34 µM (inactive) | 15.7 µM (inactive) | 0.687 µM (active) | 10.3 µM (inactive) | 2.35 µM (inactive) | 20.1 µM (inactive) | 2.64 µM (inactive) | 0.71 µM (active) | 10.3 µM (inactive) | 23.2 µM (inactive) | 0.507 µM (active) | 22.5 µM (inactive) | 17.6 µM (inactive) | 0.656 µM (active) | 11.6 µM (inactive) | 9.27 µM (inactive)
13 | N#CC(=N)c1ncn(-c2ccc(N)cc2)c1N | > 100 µM (inactive) | > 100 µM (inactive) | > 100 µM (inactive) | > 100 µM (inactive) | > 100 µM (inactive) | > 100 µM (inactive) | > 100 µM (inactive) | > 100 µM (inactive) | > 100 µM (inactive) | > 100 µM (inactive) | > 100 µM (inactive) | > 100 µM (inactive) | > 100 µM (inactive) | > 100 µM (inactive) | > 100 µM (inactive) | > 100 µM (inactive) | > 100 µM (inactive) | > 100 µM (inactive) | > 100 µM (inactive)
14 | Nc1cc2c3c(c1)Oc1cc(N)cc4c1C3c1c(cc(N)cc1O4)O2 | 63.8 µM (inactive) | 14.4 µM (inactive) | 3.03 µM (inactive) | 25.3 µM (inactive) | 10.4 µM (inactive) | 24.8 µM (inactive) | 39.6 µM (inactive) | 56.5 µM (inactive) | 29 µM (inactive) | 14.7 µM (inactive) | 11.9 µM (inactive) | 46.5 µM (inactive) | 16.7 µM (inactive) | 15.5 µM (inactive) | 33.7 µM (inactive) | 41.7 µM (inactive) | 30.5 µM (inactive) | 26.4 µM (inactive) | 47.2 µM (inactive)
15 | COc1ccc(/C=C2\CN(C)CC3=C2OC(N)=C(C#N)C3c2ccc(OC)cc2)cc1 (centres undefined) | 35.4 µM (inactive) | 69.7 µM (inactive) | > 76.6 µM (inactive) | > 56.8 µM (inactive) | 15.9 µM (inactive) | 19.5 µM (inactive) | 5.81 µM (inactive) | 21.6 µM (inactive) | > 100 µM (inactive) | 9.82 µM (inactive) | > 62.1 µM (inactive) | 5.64 µM (inactive) | 35.4 µM (inactive) | 15.2 µM (inactive) | > 94.2 µM (inactive) | > 84.5 µM (inactive) | 50.5 µM (inactive) | > 100 µM (inactive) | > 50.5 µM (inactive)
